According to patent publication US9321776B2, “Isochromene derivatives as phoshoinositide 3-kinases inhibitors” (CHIESI FARMACEUTICI S.p.A., priority 2013, dated 2016):
Where a name gives a salt, the structure may show the parent alone.

Tests used:
Experiment in all cases: PI3K enzyme inhibitory activity in the cell free assay (ADP-Glo Kinase Assay)
Format in all cases: biochemical
PI3Kγ = target: T1, PI3Kγ (Homo sapiens, UniProt P48736); conditions: human recombinant PI3Kγ, ATP 30 μM; read-out: PI3K gamma inhibition
T1 construct: purchased Millipore Ltd (Billerica, Mass.)

PI3Kδ = target: T2, PI3Kδ (Homo sapiens, UniProt O00329); conditions: human recombinant PI3Kδ, ATP 80 μM; read-out: PI3K delta inhibition
T2 construct: purchased Millipore Ltd (Billerica, Mass.)
T2 sequence (O00329 1-1044): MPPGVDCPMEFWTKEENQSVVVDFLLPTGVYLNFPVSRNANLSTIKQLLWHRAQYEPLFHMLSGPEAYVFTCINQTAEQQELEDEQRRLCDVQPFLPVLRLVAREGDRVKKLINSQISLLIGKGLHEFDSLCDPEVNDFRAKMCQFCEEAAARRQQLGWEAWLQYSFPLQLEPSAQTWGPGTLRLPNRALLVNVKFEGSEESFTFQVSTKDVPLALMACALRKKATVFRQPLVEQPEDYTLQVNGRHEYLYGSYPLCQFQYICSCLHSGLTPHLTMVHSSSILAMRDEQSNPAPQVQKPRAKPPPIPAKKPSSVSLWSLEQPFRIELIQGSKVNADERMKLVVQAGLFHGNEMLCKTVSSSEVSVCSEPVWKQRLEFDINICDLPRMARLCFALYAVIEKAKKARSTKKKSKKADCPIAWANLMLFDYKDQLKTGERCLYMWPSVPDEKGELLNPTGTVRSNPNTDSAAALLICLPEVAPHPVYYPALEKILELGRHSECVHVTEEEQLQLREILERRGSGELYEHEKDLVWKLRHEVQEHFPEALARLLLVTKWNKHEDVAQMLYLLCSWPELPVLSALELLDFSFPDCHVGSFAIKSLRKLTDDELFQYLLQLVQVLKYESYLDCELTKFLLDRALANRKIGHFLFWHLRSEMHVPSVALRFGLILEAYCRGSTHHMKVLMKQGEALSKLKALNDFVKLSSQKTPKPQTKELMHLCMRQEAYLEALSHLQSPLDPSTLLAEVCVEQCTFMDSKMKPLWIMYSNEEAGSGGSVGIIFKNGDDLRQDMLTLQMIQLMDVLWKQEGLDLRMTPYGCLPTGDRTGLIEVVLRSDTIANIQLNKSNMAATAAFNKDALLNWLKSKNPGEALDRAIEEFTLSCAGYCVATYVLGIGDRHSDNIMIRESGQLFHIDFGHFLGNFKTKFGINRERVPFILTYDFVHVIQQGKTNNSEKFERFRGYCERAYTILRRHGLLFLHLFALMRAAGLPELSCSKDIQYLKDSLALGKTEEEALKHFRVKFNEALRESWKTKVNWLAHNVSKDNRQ

PI3Kβ = target: T3, PI3Kβ (Homo sapiens, UniProt P42338); conditions: human recombinant PI3Kβ, ATP 100 μM; read-out: PI3K beta inhibition
T3 construct: purchased Millipore Ltd (Billerica, Mass.)

PI3Kα = target: T4, PI3Kα (Homo sapiens, UniProt P42336); conditions: human recombinant PI3Kα, ATP 50 μM; read-out: PI3K alpha inhibition
T4 construct: purchased Millipore Ltd (Billerica, Mass.)
T4 sequence (P42336 whole entry): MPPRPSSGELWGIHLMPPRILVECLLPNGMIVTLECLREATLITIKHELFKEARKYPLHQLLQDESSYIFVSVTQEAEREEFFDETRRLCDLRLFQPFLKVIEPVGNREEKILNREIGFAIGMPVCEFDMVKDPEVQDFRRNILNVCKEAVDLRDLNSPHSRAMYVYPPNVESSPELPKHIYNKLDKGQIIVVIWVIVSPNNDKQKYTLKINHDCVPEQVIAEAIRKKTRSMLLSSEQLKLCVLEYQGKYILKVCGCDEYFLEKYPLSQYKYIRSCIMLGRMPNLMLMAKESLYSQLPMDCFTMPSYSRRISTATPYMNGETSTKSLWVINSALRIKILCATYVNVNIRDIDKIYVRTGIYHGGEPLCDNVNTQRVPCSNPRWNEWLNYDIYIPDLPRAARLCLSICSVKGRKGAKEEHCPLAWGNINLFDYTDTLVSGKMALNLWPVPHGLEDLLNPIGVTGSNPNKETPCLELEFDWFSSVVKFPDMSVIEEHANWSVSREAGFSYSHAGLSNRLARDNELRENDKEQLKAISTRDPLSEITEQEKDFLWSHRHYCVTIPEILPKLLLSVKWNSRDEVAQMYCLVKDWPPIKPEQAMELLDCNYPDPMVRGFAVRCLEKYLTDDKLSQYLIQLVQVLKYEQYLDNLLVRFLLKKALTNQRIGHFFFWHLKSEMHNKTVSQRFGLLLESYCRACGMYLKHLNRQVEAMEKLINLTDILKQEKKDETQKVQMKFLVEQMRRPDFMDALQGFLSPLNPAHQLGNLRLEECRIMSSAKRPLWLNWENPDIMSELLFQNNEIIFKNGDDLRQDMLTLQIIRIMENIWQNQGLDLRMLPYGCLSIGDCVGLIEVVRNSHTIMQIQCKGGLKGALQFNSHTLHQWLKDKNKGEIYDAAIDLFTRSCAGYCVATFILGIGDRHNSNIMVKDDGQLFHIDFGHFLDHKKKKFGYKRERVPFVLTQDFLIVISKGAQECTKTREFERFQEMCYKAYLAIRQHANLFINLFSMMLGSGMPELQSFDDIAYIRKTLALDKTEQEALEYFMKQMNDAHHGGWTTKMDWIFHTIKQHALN

T1 sequence (P48736 whole entry): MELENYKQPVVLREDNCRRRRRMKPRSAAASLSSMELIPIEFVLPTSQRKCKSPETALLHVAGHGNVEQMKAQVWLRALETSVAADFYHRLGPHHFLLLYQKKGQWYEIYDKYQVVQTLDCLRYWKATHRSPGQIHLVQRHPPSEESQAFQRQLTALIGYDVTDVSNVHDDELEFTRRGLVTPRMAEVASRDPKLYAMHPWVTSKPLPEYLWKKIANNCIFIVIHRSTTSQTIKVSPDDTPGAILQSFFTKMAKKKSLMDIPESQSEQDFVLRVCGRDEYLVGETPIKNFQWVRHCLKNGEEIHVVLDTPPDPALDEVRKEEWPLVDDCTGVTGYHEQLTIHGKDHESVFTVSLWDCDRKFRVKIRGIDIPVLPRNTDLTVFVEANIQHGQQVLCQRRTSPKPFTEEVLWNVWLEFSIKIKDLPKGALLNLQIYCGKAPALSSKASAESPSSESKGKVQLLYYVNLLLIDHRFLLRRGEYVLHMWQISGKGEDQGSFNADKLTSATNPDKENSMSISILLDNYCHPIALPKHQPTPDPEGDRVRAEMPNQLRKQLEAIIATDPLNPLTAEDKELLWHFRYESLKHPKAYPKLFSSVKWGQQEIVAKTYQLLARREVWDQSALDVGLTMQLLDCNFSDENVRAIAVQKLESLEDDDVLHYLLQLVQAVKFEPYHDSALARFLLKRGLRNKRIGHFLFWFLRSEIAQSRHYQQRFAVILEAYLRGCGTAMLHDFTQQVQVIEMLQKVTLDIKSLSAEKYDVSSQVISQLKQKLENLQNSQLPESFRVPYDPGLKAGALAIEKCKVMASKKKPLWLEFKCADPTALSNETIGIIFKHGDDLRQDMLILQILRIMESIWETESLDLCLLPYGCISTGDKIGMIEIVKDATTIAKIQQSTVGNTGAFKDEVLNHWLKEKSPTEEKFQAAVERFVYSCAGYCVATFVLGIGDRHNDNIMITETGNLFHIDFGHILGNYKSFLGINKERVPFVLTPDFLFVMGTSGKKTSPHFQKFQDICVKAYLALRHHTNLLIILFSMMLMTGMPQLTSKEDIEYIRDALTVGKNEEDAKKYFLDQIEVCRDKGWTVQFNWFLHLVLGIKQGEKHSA
T3 sequence (P42338 whole entry): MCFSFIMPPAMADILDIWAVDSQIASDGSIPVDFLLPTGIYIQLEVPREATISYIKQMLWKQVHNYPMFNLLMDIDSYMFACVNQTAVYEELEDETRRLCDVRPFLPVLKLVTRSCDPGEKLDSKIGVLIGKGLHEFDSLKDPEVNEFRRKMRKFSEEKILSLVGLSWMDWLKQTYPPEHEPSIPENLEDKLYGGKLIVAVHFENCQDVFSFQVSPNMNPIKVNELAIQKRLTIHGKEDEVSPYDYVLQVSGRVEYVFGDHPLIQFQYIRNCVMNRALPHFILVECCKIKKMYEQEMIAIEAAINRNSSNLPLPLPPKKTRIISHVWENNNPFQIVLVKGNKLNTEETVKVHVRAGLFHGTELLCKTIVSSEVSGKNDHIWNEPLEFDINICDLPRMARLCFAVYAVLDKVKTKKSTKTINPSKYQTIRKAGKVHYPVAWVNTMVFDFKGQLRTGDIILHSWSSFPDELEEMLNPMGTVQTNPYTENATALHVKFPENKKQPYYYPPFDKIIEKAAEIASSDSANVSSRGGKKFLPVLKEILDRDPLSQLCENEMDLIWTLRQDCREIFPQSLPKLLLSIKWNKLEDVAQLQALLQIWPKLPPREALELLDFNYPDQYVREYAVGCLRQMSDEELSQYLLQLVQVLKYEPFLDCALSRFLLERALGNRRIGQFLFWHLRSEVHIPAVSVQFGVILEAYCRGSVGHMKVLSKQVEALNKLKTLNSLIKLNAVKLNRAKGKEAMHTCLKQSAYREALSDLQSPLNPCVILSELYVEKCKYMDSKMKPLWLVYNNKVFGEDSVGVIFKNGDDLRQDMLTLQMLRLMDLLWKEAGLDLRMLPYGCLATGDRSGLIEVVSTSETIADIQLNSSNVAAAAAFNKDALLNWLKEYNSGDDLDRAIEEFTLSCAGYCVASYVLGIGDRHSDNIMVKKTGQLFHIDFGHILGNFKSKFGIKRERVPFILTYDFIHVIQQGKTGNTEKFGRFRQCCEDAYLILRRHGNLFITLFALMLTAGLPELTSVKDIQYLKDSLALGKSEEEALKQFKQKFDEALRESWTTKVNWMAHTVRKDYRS

IC50 (PI3Kγ)	IC50 (PI3Kδ)	IC50 (PI3Kβ)	IC50 (PI3Kα)	Structure (SMILES)
10 to 1000 nM	< 10 nM	> 1000 nM	–	CCC(Nc1ncnc2[nH]cnc12)c1oc(=O)c2ccccc2c1-c1ccccc1 (centres unmarked) [Example 25, 3-(1-(9H-Purin-6-ylamino)propyl)-4-phenyl-1H-isochromen-1-one]
> 1000 nM	10 to 1000 nM	> 1000 nM	–	Cc1cccc(-c2c(Cn3cnc4c(N)ncnc43)oc(=O)c3ccccc23)c1 [Example 4, 3-((6-Amino-9H-purin-9-yl)methyl)-4-m-tolyl-1H-isochromen-1-one]
10 to 1000 nM	< 10 nM	10 to 1000 nM	–	Cc1ncc(O)cc1-c1nn(C(C)c2oc(=O)c3ccccc3c2-c2ccccc2)c2ncnc(N)c12 (centres unmarked) [Example 160, 3-(1-(4-amino-3-(5-hydroxy-2-methylpyridin-3-yl)-1H-pyrazolo[3,4-d]pyrimidin-1-yl)ethyl)-4-phenyl-1H-isochromen-1-one]
10 to 1000 nM	–	–	> 1000 nM	O=c1oc(CNc2ncnc3[nH]cnc23)c(-c2ccccc2)c2ccccc12 [Example 29, 3-((9H-Purin-6-ylamino)methyl)-4-phenyl-1H-isochromen-1-one]
10 to 1000 nM	10 to 1000 nM	> 1000 nM	–	O=c1oc(CNc2ncnc3[nH]cnc23)c(-c2ccccc2F)c2ccccc12 [Example 30, 3-((9H-Purin-6-ylamino)methyl)-4-(2-fluorophenyl)-1H-isochromen-1-one]
> 1000 nM	10 to 1000 nM	> 1000 nM	–	Nc1ncnc2c1ncn2Cc1oc(=O)c2ccccc2c1-c1ccccc1F [Example 3, 3-((6-Amino-9H-purin-9-yl)methyl)-4-(2-fluorophenyl)-1H-isochromen-1-one]
10 to 1000 nM	10 to 1000 nM	> 1000 nM	–	Nc1ncnc2c1c(I)nn2Cc1oc(=O)c2ccccc2c1-c1ccccc1 [Int D1, 3-((4-Amino-3-iodo-1H-pyrazolo[3,4-d]pyrimidin-1-yl)methyl)-4-phenyl-1H-isochromen-1-one]
10 to 1000 nM	< 10 nM	> 1000 nM	–	CC(Nc1ncnc(N)c1C#N)c1oc(=O)c2ccccc2c1-c1ccc(CN2CCOCC2)s1 (centres unmarked) [Example 82, 4-amino-6-((1-(4-(5-(morpholinomethyl)thiophen-2-yl)-1-oxo-1H-isochromen-3-yl)ethyl)amino)pyrimidine-5-carbonitrile hydrochloride]
10 to 1000 nM	10 to 1000 nM	–	> 1000 nM	CC(c1oc(=O)c2ccccc2c1-c1ccccc1)n1nc(-c2cc[nH]n2)c2c(N)ncnc21 (centres unmarked) [Example 111, 3-(1-(4-amino-3-(1H-pyrazol-3-yl)-1H-pyrazolo[3,4-d]pyrimidin-1-yl)ethyl)-4-phenyl-1H-isochromen-1-one]
10 to 1000 nM	10 to 1000 nM	> 1000 nM	–	Nc1ncnc2c1c(-c1ccc(O)c(F)c1)nn2Cc1oc(=O)c2ccccc2c1-c1ccccc1 [Example 39, 3-((4-Amino-3-(3-fluoro-4-hydroxyphenyl)-1H-pyrazolo[3,4-d]pyrimidin-1-yl)methyl)-4-phenyl-1H-isochromen-1-one]
> 1000 nM	10 to 1000 nM	> 1000 nM	–	CC(c1oc(=O)c2ccccc2c1-c1ccc(CN2CCOCC2)s1)n1nc(-c2cc(O)cc(F)c2)c2c(N)ncnc21 (single isomer, unassigned) [Example 49b, 3-(1-(4-amino-3-(3-fluoro-5-hydroxyphenyl)-1H-pyrazolo[3,4-d]pyrimidin-1-yl)ethyl)-4-(5-(morpholinomethyl)thiophen-2-yl)-1H-isochromen-1-one hydrochloride]
10 to 1000 nM	10 to 1000 nM	> 1000 nM	–	CC(Nc1ncnc2[nH]cnc12)c1oc(=O)c2ccccc2c1-c1cccc(N(C)C)c1 (centres unmarked) [Example 34, 3-(1-(9H-Purin-6-ylamino)ethyl)-4-(3-(dimethylamino)phenyl)-1H-isochromen-1-one]
10 to 1000 nM	10 to 1000 nM	> 1000 nM	–	Cc1c(O)cncc1-c1nn(C(C)c2oc(=O)c3ccccc3c2-c2ccccc2)c2ncnc(N)c12 (centres unmarked) [Example 159, 3-(1-(4-amino-3-(5-hydroxy-4-methylpyridin-3-yl)-1H-pyrazolo[3,4-d]pyrimidin-1-yl)ethyl)-4-phenyl-1H-isochromen-1-one]
10 to 1000 nM	10 to 1000 nM	–	> 1000 nM	Cc1ccc2c(-c3ccccc3)c(C(C)n3nc(-c4cc(O)cc(F)c4)c4c(N)ncnc43)oc(=O)c2c1 (centres unmarked) [Example 162, 3-(1-(4-amino-3-(3-fluoro-5-hydroxyphenyl)-1H-pyrazolo[3,4-d]pyrimidin-1-yl)ethyl)-7-methyl-4-phenyl-1H-isochromen-1-one]
> 1000 nM	10 to 1000 nM	> 1000 nM	–	CC(c1oc(=O)c2ccccc2c1-c1ccc(CN2CCNCC2)cc1)n1nc(-c2cc(O)cc(F)c2)c2c(N)ncnc21 (centres unmarked) [Example 125, 3-(1-(4-amino-3-(3-fluoro-5-hydroxyphenyl)-1H-pyrazolo[3,4-d]pyrimidin-1-yl)ethyl)-4-(4-(piperazin-1-ylmethyl)phenyl)-1H-isochromen-1-one dihydrochloride]
10 to 1000 nM	10 to 1000 nM	> 1000 nM	–	Nc1ncnc2c1c(-c1ccc3[nH]ncc3c1)nn2Cc1oc(=O)c2ccccc2c1-c1ccccc1 [Example 36, 3-((4-Amino-3-(1H-indazol-5-yl)-1H-pyrazolo[3,4-d]pyrimidin-1-yl)methyl)-4-phenyl-1H-isochromen-1-one]
10 to 1000 nM	10 to 1000 nM	–	10 to 1000 nM	CC(c1oc(=O)c2ccccc2c1-c1ccccc1)n1nc(-c2cncc(NS(=O)(=O)c3ccc(F)cc3)c2)c2c(N)ncnc21 (centres unmarked) [Example 87, N-(5-(4-amino-1-(1-(1-oxo-4-phenyl-1H-isochromen-3-yl)ethyl)-1H-pyrazolo[3,4-d]pyrimidin-3-yl)pyridin-3-yl)-4-fluorobenzenesulfonamide]
> 1000 nM	10 to 1000 nM	10 to 1000 nM	–	CC(c1oc(=O)c2ccccc2c1-c1cncs1)n1ncc2c(N)ncnc21 (centres unmarked) [Example 18, 3-(1-(4-Amino-1H-pyrazolo[3,4-d]pyrimidin-1-yl)ethyl)-4-(thiazol-5-yl)-1H-isochromen-1-one]
10 to 1000 nM	10 to 1000 nM	> 1000 nM	–	CC(c1oc(=O)c2ccccc2c1-c1ccccc1)n1nc(-c2cccc3[nH]ncc23)c2c(N)ncnc21 (centres unmarked) [Example 112, 3-(1-(4-amino-3-(1H-indazol-4-yl)-1H-pyrazolo[3,4-d]pyrimidin-1-yl)ethyl)-4-phenyl-1H-isochromen-1-one]
> 1000 nM	10 to 1000 nM	> 1000 nM	–	CC(c1oc(=O)c2ccccc2c1C1=CCN(Cc2ccccc2)CC1)n1nc(-c2cc(O)cc(F)c2)c2c(N)ncnc21 (centres unmarked) [Example 131, 3-(1-(4-amino-3-(3-fluoro-5-hydroxyphenyl)-1H-pyrazolo[3,4-d]pyrimidin-1-yl)ethyl)-4-(1-benzyl-1,2,3,6-tetrahydropyridin-4-yl)-1H-isochromen-1-one hydrochloride]
10 to 1000 nM	10 to 1000 nM	> 1000 nM	–	Nc1ncnc2c1ncn2Cc1oc(=O)c2ccccc2c1-c1ccccc1 [Example 1, 3-((6-Amino-9H-1-purin-9-yl)methyl)-4-phenyl-1H-isochromen-1-one]
10 to 1000 nM	< 10 nM	> 1000 nM	–	CC(Nc1ncnc2[nH]cnc12)c1oc(=O)c2ccccc2c1-c1ccc(CN2CCOCC2)s1 (centres unmarked) [Example 28, 3-(1-(9H-Purin-6-ylamino)ethyl)-4-(5-(morpholinomethyl)thiophen-2-yl)-1H-isochromen-1-one]
> 1000 nM	10 to 1000 nM	> 1000 nM	–	Nc1ncnc2c1ncn2Cc1oc(=O)c2ccccc2c1-c1cccc(F)c1 [Example 2, 3-((6-Amino-9H-purin-9-yl)methyl)-4-(3-fluorophenyl)-1H-isochromen-1-one]
10 to 1000 nM	< 10 nM	–	> 1000 nM	Cc1cccc(-c2c(C(C)n3nc(-c4cn[nH]c4)c4c(N)ncnc43)oc(=O)c3ccccc23)c1 (centres unmarked) [Example 42, 3-(1-(4-Amino-3-(1H-pyrazol-4-yl)-1H-pyrazolo[3,4-d]pyrimidin-1-yl)ethyl)-4-m-tolyl-1H-isochromen-1-one]
